This is an account of results in patent US20240417412A1, “HETEROCYCLIC COMPOUNDS AND METHODS OF USE” (AMGEN INC., priority 2022, published 2024).

As usually defined, the pIC50 is the negative decadic logarithm of the IC50, by convention in mol/L. In general, IC50 refers to the point on the concentration scale where inhibition reaches its midpoint.

Assay [1] addresses KRAS G12D (Homo sapiens, UniProt P01116, C118A/G12D). In words: KRAS G12D Coupled Nucleotide Exchange Assay. The settings on record: GDP-bound KRAS G12D/C118A, 2 hours pre-incubation, SOS-mediated nucleotide exchange, AlphaScreen. The assay is classed as biochemical. The method, then: The assay plates were then read on a PerkinElmer EnVision Multilabel Reader, using AlphaScreen® technology, and data were analyzed using a 4-parameter logistic model to calculate IC50 values.
Background: Alpha assays give light when donor and acceptor beads are brought close together.

In assay [2] the target is KRAS G12D (Homo sapiens, UniProt P01116, G12D). In words: KRAS G12D TR-FRET Assay. Particulars: His-tagged KRAS G12D, biotinylated KRPep-2d, read-out: KRAS G12D Binding IC50. The method, then: The plate was incubated for 30 minutes at room temperature. Biotinylated KRPep-2d substrate (Amgen) was diluted to 20 nM in Assay Buffer and 2 uL was added to all wells and incubated for 1 hour at room temperature. Detection Reagent (0.4 nM LANCE Eu-W1024 Anti-6×His (Perkin Elmer AD0401), 5 nM streptavidin-d2 (Cisbio 610SADLA)) was prepared in Assay Buffer, then 4 μL was added to the plate and incubated for 1 hour at room temperature.
KRAS G12D (Homo sapiens, UniProt P01116, G12D), sequence (P01116 1-188 isoform P01116-2 G12D): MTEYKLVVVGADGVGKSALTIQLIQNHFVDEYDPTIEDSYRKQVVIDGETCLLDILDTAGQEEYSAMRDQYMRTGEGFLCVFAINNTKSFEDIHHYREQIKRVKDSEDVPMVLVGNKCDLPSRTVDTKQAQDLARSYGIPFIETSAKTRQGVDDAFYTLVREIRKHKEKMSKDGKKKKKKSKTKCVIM
Background: Time-resolved FRET reads energy transfer from a long-lived donor to a nearby acceptor.

The test system of the next assay is p-ERK (AsPC-1 cells). In words: Phospho-ERK1/2 MSD Assay. In kind it is cell-based. Particulars: Homo sapiens, ASPC1, 2 h, read-out: 2 h p-ERK (AsPC-1 cells), IC50 (μM), AsPC-1 cells, 2 hours compound treatment. As to the method:
Sixteen hours prior to compound treatment, AsPC-1 cells were seeded in 96-well cell culture plates at a density of 25,000 cells/well and incubated at 37° C., 5% CO2. A compound dose-response titration was diluted in growth media, added to appropriate wells of a cell culture plate, and then incubated at 37° C., 5% CO2 for 2 hours. […] Phosphorylation of ERK1/2 in compound-treated lysates was assayed using Phospho-ERK1/2 Whole Cell Lysate kits (Meso Scale Discovery K151DWD) according to the manufacturer's protocol. Assay plates were read on a Meso Scale Discovery Sector Imager 6000, and data were analyzed using a 4-parameter logistic model to calculate IC50 values.

The structures appear in SMILES notation. pIC50: −log10 of the molar value.

KRAS G12D (Homo sapiens, UniProt P01116, C118A/G12D), sequence (P01116 1-169 isoform P01116-2 G12D/C118A): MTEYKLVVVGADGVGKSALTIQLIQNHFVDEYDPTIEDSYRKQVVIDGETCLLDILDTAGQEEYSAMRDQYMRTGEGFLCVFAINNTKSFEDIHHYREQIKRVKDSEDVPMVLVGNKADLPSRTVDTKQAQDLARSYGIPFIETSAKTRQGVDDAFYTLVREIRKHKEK

Take `CCc1c(F)ccc2cc(O)cc(-c3ncc4c(N5CCCC6(CC(=O)N6C)C5)nc(OC[C@@]56CCCN5C[C@H](F)C6)nc4c3F)c12` (stereo partly drawn) [Example 6, 6-(7-(8-Ethyl-7-fluoro-3-hydroxynaphthalen-1-yl)-8-fluoro-2-(((2R,7aS)-2-fluorotetrahydro-1H-pyrrolizin-7a(5H)-yl)methoxy)pyrido[4,3-d]pyrimidin-4-yl)-1-methyl-1,6-diazaspiro[3.5]nonan-2-one]: the pIC50 against KRAS G12D [1] is 8.00; at KRAS G12D [2], 8.10. The IC50 in the assay on p-ERK (AsPC-1 cells) turned out to be 2.4 µM.
The corresponding values for `CCc1c(F)ccc2cc(O)cc(-c3ncc4c(N5CC(C)(O)CC6(CC6)C5)nc(OC[C@@]56CCCN5C[C@H](F)C6)nc4c3F)c12` (stereo partly drawn) [Example 19, 5-(7-(8-Ethyl-7-fluoro-3-hydroxynaphthalen-1-yl)-8-fluoro-2-(((2R,7aS)-2-fluorotetrahydro-1H-pyrrolizin-7a(5H)-yl)methoxy)pyrido[4,3-d]pyrimidin-4-yl)-7-methyl-5-azaspiro[2.5]octan-7-ol] are 8.22, 8.30 and 0.341 µM.
The corresponding values for `Oc1cc(Cl)c(C2CC2)c(-c2ncc3c(N4CCCC5(CCO5)C4)nc(OC[C@@]45CCCN4C[C@H](F)C5)nc3c2F)c1` (stereo partly drawn) [Example 26, 3-Chloro-4-cyclopropyl-5-(8-fluoro-2-(((2R,7aS)-2-fluorotetrahydro-1H-pyrrolizin-7a(5H)-yl)methoxy)-4-(1-oxa-6-azaspiro[3.5]nonan-6-yl)pyrido[4,3-d]pyrimidin-7-yl)phenol] are 8.70, 9.00 and 0.066 µM.
For `CCc1c(F)ccc2cc(O)cc(-c3ncc4c(N5CCCC6(CCCO6)C5)nc(OC[C@@]56CCCN5C[C@H](F)C6)nc4c3F)c12` (stereo partly drawn) [Example 27, 5-Ethyl-6-fluoro-4-(8-fluoro-2-(((2R,7aS)-2-fluorotetrahydro-1H-pyrrolizin-7a(5H)-yl)methoxy)-4-(1-oxa-7-azaspiro[4.5]decan-7-yl)pyrido[4,3-d]pyrimidin-7-yl) naphthalen-2-ol] the same measures were 8.22, 8.40 and 0.137 µM.
For `CCc1c(F)ccc2cc(O)cc(-c3ncc4c(N5CCCC6(CCC(=O)N6)C5)nc(OC[C@@]56CCCN5C[C@H](F)C6)nc4c3F)c12` (stereo partly drawn) [Example 28, 7-(7-(8-Ethyl-7-fluoro-3-hydroxynaphthalen-1-yl)-8-fluoro-2-(((2R,7aS)-2-fluorotetrahydro-1H-pyrrolizin-7a(5H)-yl)methoxy)pyrido[4,3-d]pyrimidin-4-yl)-1,7-diazaspiro[4.5]decan-2-one], the pIC50 on KRAS G12D [1] was 8.30; at KRAS G12D [2] it was 8.52. Besides, the concentration for half-maximal inhibition (IC50) with p-ERK (AsPC-1 cells) worked out at 0.923 µM.
As for `C#Cc1c(F)ccc2cccc(-c3ncc4c(N5CCCC6(CNC(=O)C6)C5)nc(OC[C@@]56CCCN5C[C@H](F)C6)nc4c3F)c12` (stereo partly drawn) [Example 29, 7-(7-(8-Ethynyl-7-fluoronaphthalen-1-yl)-8-fluoro-2-(((2R,7aS)-2-fluorotetrahydro-1H-pyrrolizin-7a(5H)-yl)methoxy)pyrido[4,3-d]pyrimidin-4-yl)-2,7-diazaspiro[4.5]decan-3-one], the pIC50 at KRAS G12D [1] was 8.05; at KRAS G12D [2], 8.00. Further, in the assay with p-ERK (AsPC-1 cells), the half-maximal inhibitory concentration (IC50) worked out at 2.04 µM.
The corresponding values for `CCc1c(F)ccc2cccc(-c3ncc4c(N5CCCC6(CNC(=O)C6)C5)nc(OC[C@@]56CCCN5C[C@H](F)C6)nc4c3F)c12` (stereo partly drawn) [Example 30, 7-(7-(8-Ethyl-7-fluoronaphthalen-1-yl)-8-fluoro-2-(((2R,7aS)-2-fluorotetrahydro-1H-pyrrolizin-7a(5H)-yl)methoxy)pyrido[4,3-d]pyrimidin-4-yl)-2,7-diazaspiro[4.5]decan-3-one] are 7.80, 7.72 and 1.98 µM.
